Data from patent US5977065A, “Bacterial nitroreductase for the reduction of CB1954 and analogues thereof to a cytotoxic form” (Cancer Research Campaign Technology Limited, priority 1991, dated 1999).

How the values were obtained:
[1] = target: T1, E. coli nitroreductase (Escherichia coli, UniProt P38489); experiment: Cofactor ability for the reduction of CB 1954 (FIG. 1); format: biochemical; conditions: compared with NADH; CB 1954 100 μM, reduced cofactor 500 μM
T1 construct: endogenous in cells; host or cells: E. coli B cell paste; endogenous enzyme purified by Phenyl-Sepharose and Q-Sepharose chromatography, not recombinant
T1 sequence (P38489 whole entry): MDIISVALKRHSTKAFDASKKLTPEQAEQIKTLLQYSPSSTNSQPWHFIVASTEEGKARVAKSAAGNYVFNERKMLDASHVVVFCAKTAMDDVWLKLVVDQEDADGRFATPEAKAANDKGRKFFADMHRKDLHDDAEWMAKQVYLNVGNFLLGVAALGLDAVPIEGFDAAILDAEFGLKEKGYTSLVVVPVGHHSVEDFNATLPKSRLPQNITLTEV
Procedure: (§1) At various times aliquots (10 μl) were injected onto a Partisil SCX (240×4.7 mm) HPLC column and eluted isocratically (2 ml/min) with 100 mM NaH2 PO4. The eluate was continuously monitored for absorption at 320, 260 and 360 nm and the concentration of CB 1954 calculated by integration of the peak corresponding to this compound on the HPLC trace.
(§2) The ability of the nitroreductase enzyme to be able to use a synthetic cofactor in place of NADH or NADPH for the reduction of CB 1954 is shown in FIG. 1. […] Therefore 1,4-dihydro-nicotinic acid riboside is a selective cofactor for the E. coli nitroreductase enzyme and cannot be used by mammalian DT diaphorase.

[2] = target: T2, Walker DT diaphorase (Rattus norvegicus, UniProt P05982); experiment: as above; format: biochemical; conditions: CB 1954 100 μM, reduced cofactor 500 μM
T2 construct: the enzyme isolated from the Walker tumour, EC.1.6.99.2; from tissue; host or cells: Walker tumour (Walker cell)
T2 sequence (P05982 2-274 limits assumed): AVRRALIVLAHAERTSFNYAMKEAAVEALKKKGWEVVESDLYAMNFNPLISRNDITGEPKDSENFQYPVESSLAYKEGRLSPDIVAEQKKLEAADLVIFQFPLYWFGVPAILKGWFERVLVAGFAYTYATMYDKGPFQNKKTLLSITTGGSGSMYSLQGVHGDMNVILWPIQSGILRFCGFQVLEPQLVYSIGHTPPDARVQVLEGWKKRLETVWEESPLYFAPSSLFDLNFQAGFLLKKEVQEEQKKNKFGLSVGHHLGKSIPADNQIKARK
Procedure: as §1, §2

[3] = tested on: V79 cells; experiment: Survival (colony forming ability) of V79 cells with enzyme-activated prodrugs (Table 8); format: cell-based
Procedure: (§3) Generation of cytotoxicity by the action of the E. coli nitroreductase of Example 1 upon the prodrugs 4-[bis(2-chloroethyl)amino]phenylcarbamic acid 4'-nitrobenzyl ester (I where R^1 NH2 =III) and N-4-nitrobenzyloxy-carbonyl-actinomycin D (V) are shown in Table 8.
(§4) The effect of enzyme-activated prodrugs on the survival of V79
(§5) cells. 1 ml volumes of V79 cells (2 × 10^5 /ml) were incubated
(§6) with prodrug, 500 μM NADH, and 10 μg/ml enzyme. After a 2 hour
(§7) incubation at 37° C., the cells were harvested and assayed for
(§8) their colony forming ability, and the supernatant assayed for
(§9) the concentration of remaining prodrug by HPLC.

[4] = In vivo toxicity of prodrug in mice; conditions: for Weight as % of Day 0, Day 2 / Weight as % of Day 0, Day 3 / Weight as % of Day 0, Day 7 / Weight as % of Day 0, Day 9: mice
Procedure: The actinomycin D prodrug (AMDPD) of formula V was tested for toxicity in mice. Groups of 3 mice were given 1, 10 or 100 mg/kg body weight i.p. of AMPD, and two further groups of 3 mice were given 1 and 10 mg/kg body weight i.p. of actinomycin D (AMD) dissolved in arachis oil. A further group of 3 mice were untreated, and a final group of 3 mice were given arachis oil i.p. only.
The body weight of the mice were monitored over 9 days. All mice treated with 10 mg/kg of AMD were dead by day 1. […] In practice, the toxicity of AMDPD is likely to be even lower, since the preparation of AMDPD used contains about 1% unconverted AMD.

[5] = target: T1, E. coli nitroreductase; experiment: % drug reduction in the V79 incubations, remaining prodrug by HPLC (Table 8); format: biochemical
Procedure: as §3, §4, §5, §6, §7, §8, §9

[6] = target: T3, E. coli B nitroreductase (Escherichia coli, UniProt P38489); experiment: Formation of actinomycin D by the nitroreductase upon prodrug V (HPLC); format: biochemical; conditions: V 100 μM, 500 μM NADH, enzyme 2 μg/ml, pH7, 37° C.
T3 construct: endogenous in cells; host or cells: E. coli B cell paste; endogenous enzyme purified by Phenyl-Sepharose and Q-Sepharose chromatography, not recombinant
T3 sequence (P38489 whole entry): as the sequence (P38489 whole entry) above
Procedure: Disappearance of the prodrug N-4-nitro-benzyloxycarbonyl-actinomycin D (V) and formation of actinomycin D during incubation with the E. coli B nitroreductase of Example 1 is shown in FIG. 2.

[7] = tested on: V79 cells; experiment: Survival (colony-forming ability) of V79 cells treated with CB 1954 in the presence of E. coli B nitroreductase (Table 4); format: cell-based, Hamster
Procedure: (§10) E. coli B nitroreductase. All treatments were for 2 hours at 37°
(§11) cells were then plated out for their resulting colony-forming ability.
(§12) nitroreductase concentration was 2 μg/ml and NADH was used as a […]

[8] = target: T3, E. coli B nitroreductase; experiment: % drug reduction in the V79 incubations (Table 4); format: biochemical
Procedure: The effect of CB 1954 on the survival of V79 cells in the presence of the
as §10, §11, §12

[9] = target: T1, E. coli nitroreductase; experiment: Substrate specificity: relative rate of NADH oxidation by HPLC (Table 5); format: biochemical; conditions: relative to CB 1954; 37° C. in air, NADH 500 μM, substrate 100 μM
Procedure: The ability of the E. coli nitroreductase of the invention to reduce nitro-compounds other than CB 1954 was determined by HPLC by following the decrease in the peak area of NADH resulting from its oxidation. The experiments were carried out as above but the aliquots were injected onto a Partisphere SAX (110×4.7 mm) HPLC column and eluted isocratically (1 ml/min) with 75 mM NaH2 PO4.
The relative rates of reduction of various nitrobenzamides and
nitrobenzenes with E. coli nitroreductase enzyme. Reduction
rates were determined by the resulting oxidation of NADH. All
reactions were carried out at 37° C. in air, with NADH (500
electron donor, at an initial substrate concentration of 100 μM.

[10] = target: T4, Walker NAD(P)H dehydrogenase (quinone) EC 1.6.99.2 (Rattus norvegicus, UniProt P05982); experiment: Enzymatic reduction of CB 1954 followed by HPLC; format: biochemical; conditions: reduction of 50 μM of CB 1954
T4 construct: the enzyme isolated from the Walker tumour, EC.1.6.99.2; from tissue; host or cells: Walker tumour (Walker cell)
T4 sequence (P05982 2-274 limits assumed): T2 sequence (P05982 2-274 limits assumed)
Procedure: Enzymatic reduction of CB 1954. […] At various times aliquots (10 μl) were injected onto a Partisphere SCX (110×4.7 mm) HPLC column and eluted isocratically (2 ml/min) with 100 mM NaH2 PO4.
(§13) The eluate was continuously monitored for adsorption at 310, 260 and 360 nm and the spectra of eluting components recorded using a diode-array detector. Samples (0.5 ml) were collected and the tritium activity of each determined by liquid scintillation counting. This separation system could resolve all the expected reduction products.
(§14) To confirm further the identity of any reduction products, the above reduction mixture was also injected onto an ODS-5 reverse phase HPLC column and eluted (1 ml/min) with a methanol gradient (0-30% linear over 30 min, 30-100% linear over 10 min.) in 0.1 M sodium phosphate buffer (pH 7).

[11] = target: T3, E. coli B nitroreductase; experiment: Enzyme kinetic and inhibition studies; format: biochemical; conditions: saturating conditions
Procedure: Protein concentration was determined using the a conventional protein assay (Bio-Rad) calibrated against bovine serum albumin.

[12] = target: T1, E. coli nitroreductase; experiment: Enzymatic reduction of CB 1954 followed by HPLC; format: biochemical, E. coli B
Procedure: Enzymatic reduction of CB 1954. CB 1954 (100 μM and also containing [U-^3 H] C.B 1954 at 1.6×10^5 dpm per nmole), NADH or NAD(P)H (500 μM) were incubated with the active enzyme obtained as described in Example 1, (generally 2 μg/ml E. coli nitroreductase or 35 μg/ml Walker NAD(P)H dehydrogenase (quinone) EC 1.6.99.2) in 10 mM sodium phosphate buffer (pH 7) under either air or helium. At various times aliquots (10 μl) were injected onto a Partisphere SCX (110×4.7 mm) HPLC column and eluted isocratically (2 ml/min) with 100 mM NaH2 PO4.
as §13, §14

[13] = NR 10 μg/ml + 1 μM prodrug + 500 μM NADH
[14] = NR 2 μg/ml + 50 μM CB 1954, no NADH
[15] = NR 2 μg/ml + CB 1954 + 500 μM NADH

## O=C(O)C1=CN([C@@H]2O[C@H](CO)[C@@H](O)[C@H]2O)C=CC1 [1,4-dihydro-nicotinic acid riboside]
[1]
  ability to act as a cofactor for the reduction of CB 1954: equal efficiency
[2]
  ability to act as a cofactor for the reduction of CB 1954: cannot utilise

## Cc1c2oc3c(C)ccc(C(=O)NC4C(=O)NC(C(C)C)C(=O)N5CCCC5C(=O)N(C)CC(=O)N(C)C(C(C)C)C(=O)OC4C)c3nc-2c(C(=O)NC2C(=O)NC(C(C)C)C(=O)N3CCCC3C(=O)N(C)CC(=O)N(C)C(C(C)C)C(=O)OC2C)c(NC(=O)OCc2ccc([N+](=O)[O-])cc2)c1=O (centres unmarked) [V, N-4-Nitrobenzyloxycarbonyl-actinomycin D]
[3]; 1 μM prodrug alone
  % SURVIVAL: 98.3%
[3]; 10 μM prodrug alone
  % SURVIVAL: 39.3%
[3]; [13]
  % SURVIVAL: 27.4%
[4]; dose 1.0 mg/kg i.p.
  Weight as % of Day 0, Day 2: 102%
  Weight as % of Day 0, Day 3: 101%
  Weight as % of Day 0, Day 7: 101%
  Weight as % of Day 0, Day 9: 103%
[4]; dose 10 mg/kg i.p.
  Weight as % of Day 0, Day 2: 109%
  Weight as % of Day 0, Day 3: 105%
  Weight as % of Day 0, Day 7: 108%
  Weight as % of Day 0, Day 9: 110%
[4]; dose 100 mg/kg i.p., groups of 3 mice, Day 2
  deaths: 1 dead
[4]; dose 100 mg/kg i.p.
  Weight as % of Day 0, Day 2: 96.4%
  Weight as % of Day 0, Day 3: 95.6%
  Weight as % of Day 0, Day 7: 95%
  Weight as % of Day 0, Day 9: 96%
[5]; 1 μM prodrug alone
  % DRUG REDUCTION: < 1.0%
[5]; 10 μM prodrug alone
  % DRUG REDUCTION: < 1.0%
[5]; [13]
  % DRUG REDUCTION: 90.5%
[5]; NR 10 μg/ml + 10 μM prodrug + 500 μM NADH
  % DRUG REDUCTION: 93%
[6]
  release of actinomycin D from the prodrug: Only when the enzyme was present was actinomycin D released

## NC(=O)c1cc(N2CC2)c([N+](=O)[O-])cc1[N+](=O)[O-] [CB 1954, 5-(aziridin-1-yl)-2,4-dinitrobenzamide]
[7]; 50 μM CB 1954, 2 hours 37° C.
  % SURVIVAL: 100%
[7]; NADH + CB 1954, no enzyme, 2 hours 37° C.
  % SURVIVAL: 41%
[7]; [14]
  % SURVIVAL: 99%
[7]; [15]
  % SURVIVAL: 0.024%
[8]; 50 μM CB 1954 alone
  % DRUG REDUCTION: < 1.0%
[8]; NADH + CB 1954, no enzyme
  % DRUG REDUCTION: < 1.0%
[8]; [14]
  % DRUG REDUCTION: < 1.0%
[8]; [15]
  % DRUG REDUCTION: 72%
[9]
  RELATIVE RATE OF NADH OXIDATION NR: 1.0
[10]
  4-hydroxylamine formed: 50 µM
[11]
  kcat for CB 1954 reduction higher for the E. coli nitroreductase than Walker enzyme: 90 fold
[12]; co-factor NAD(P)H or NADH, under helium
  rate of reduction of CB 1954 or product formation: the same
[12]; standard conditions
  nitroreductase more active per mg protein than NAD(P)H dehydrogenase (quinone), initial rates of 4-hydroxylamine formation: 31.2 fold
  nitroreductase more active than NAD(P)H dehydrogenase (quinone) by CB 1954 reduction: 62 fold
[12]; when 67 μM of CB 1954 was reduced
  4-hydroxylamine formed: 33 µM
